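Growth conditions: 96-well plates. Treatment: test compound, 48 hours, 5 concentrations. Analysis: linear interpolation between bracketing concentrations; unreached endpoints set to highest concentration. TGI marks complete inhibition of growth.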
Columns and labels:
Assay in all cases: NCI tumour cell line growth inhibition, 48 h
OVCAR-4 ovarian = system: OVCAR-4 ovarian
HL-60(TB) leukemia = system: HL-60(TB) leukemia
SF-539 CNS = system: SF-539 CNS
RXF 393 renal = system: RXF 393 renal
NCI-H460 lung = system: NCI-H460 lung
RXF-631 renal = system: RXF-631 renal
OVCAR-5 ovarian = system: OVCAR-5 ovarian
SK-MEL-2 melanoma = system: SK-MEL-2 melanoma
HCC-2998 colon = system: HCC-2998 colon
HCT-116 colon = system: HCT-116 colon
EKVX NSCLC = system: EKVX NSCLC
786-0 renal = system: 786-0 renal
UACC-257 melanoma = system: UACC-257 melanoma
SK-MEL-28 melanoma = system: SK-MEL-28 melanoma
SNB-75 CNS = system: SNB-75 CNS
TK-10 renal = system: TK-10 renal
SF-295 CNS = system: SF-295 CNS
OVCAR-3 ovarian = system: OVCAR-3 ovarian
IGROV1 ovarian = system: IGROV1 ovarian
HOP-62 NSCLC = system: HOP-62 NSCLC
RPMI-8226 leukemia = system: RPMI-8226 leukemia
LXFL 529 NSCLC = system: LXFL 529 NSCLC
DMS 114 small cell lung = system: DMS 114 small cell lung
SF-268 CNS = system: SF-268 CNS
SNB-19 CNS = system: SNB-19 CNS
SW-620 colon = system: SW-620 colon
CCRF-CEM leukemia = system: CCRF-CEM leukemia
U251 CNS = system: U251 CNS
M19-MEL melanoma = system: M19-MEL melanoma
CAKI-1 renal = system: CAKI-1 renal
XF 498 CNS = system: XF 498 CNS
SK-MEL-5 melanoma = system: SK-MEL-5 melanoma
DLD-1 colon = system: DLD-1 colon
OVCAR-8 ovarian = system: OVCAR-8 ovarian
SNB-78 CNS = system: SNB-78 CNS
M14 melanoma = system: M14 melanoma
MALME-3M melanoma = system: MALME-3M melanoma
KM12 colon = system: KM12 colon
UO-31 renal = system: UO-31 renal
K-562 leukemia = system: K-562 leukemia
A549 NSCLC = system: A549 NSCLC
NCI-H226 lung = system: NCI-H226 lung
SN12C renal = system: SN12C renal
NCI-H522 lung = system: NCI-H522 lung
COLO 205 colon = system: COLO 205 colon
KM20L2 colon = system: KM20L2 colon
NCI-H23 lung = system: NCI-H23 lung
HOP-18 NSCLC = system: HOP-18 NSCLC
LOX IMVI melanoma = system: LOX IMVI melanoma
UACC-62 melanoma = system: UACC-62 melanoma
A498 renal = system: A498 renal
SK-OV-3 ovarian = system: SK-OV-3 ovarian
MOLT-4 leukemia = system: MOLT-4 leukemia
HCT-15 colon = system: HCT-15 colon
HT29 colon = system: HT29 colon
DMS 273 small cell lung = system: DMS 273 small cell lung
ACHN renal = system: ACHN renal
SR leukemia = system: SR leukemia
HOP-92 NSCLC = system: HOP-92 NSCLC

In the case of `CCOC(=O)C1=C(Nc2ccc(Cl)c(Cl)c2)OC/C1=N\NS(=O)(=O)c1ccc(C)cc1`, the TGI (OVCAR-4 ovarian) is reported as over 100 µM, the TGI (HL-60(TB) leukemia) is reported as over 100 µM and the TGI (SF-539 CNS) is reported as over 100 µM. For the same compound, the TGI (RXF 393 renal) was over 100 µM, the TGI (NCI-H460 lung) was over 100 µM and the TGI (RXF-631 renal) was over 100 µM. For the same compound, the TGI (OVCAR-5 ovarian) was over 100 µM, the TGI (SK-MEL-2 melanoma) was over 100 µM and the TGI (HCC-2998 colon) was over 100 µM. It also gave a TGI (HCT-116 colon) of over 100 µM, a TGI (EKVX NSCLC) of over 100 µM and a TGI (786-0 renal) of over 100 µM. It also gave a TGI (UACC-257 melanoma) of 61.7 µM, a TGI (SK-MEL-28 melanoma) of over 100 µM and a TGI (SNB-75 CNS) of over 100 µM. It also gave a TGI (TK-10 renal) of over 100 µM, a TGI (SF-295 CNS) of over 100 µM and a TGI (OVCAR-3 ovarian) of over 100 µM. It also gave a TGI (IGROV1 ovarian) of over 100 µM, a TGI (HOP-62 NSCLC) of over 100 µM and a TGI (RPMI-8226 leukemia) of 64.9 µM. The TGI (LXFL 529 NSCLC) was over 100 µM, the TGI (DMS 114 small cell lung) was over 100 µM and the TGI (SF-268 CNS) was over 100 µM. The TGI (SNB-19 CNS) was over 100 µM, the TGI (SW-620 colon) was over 100 µM and the TGI (CCRF-CEM leukemia) was over 100 µM. The TGI (U251 CNS) was over 100 µM, the TGI (M19-MEL melanoma) was over 100 µM and the TGI (CAKI-1 renal) was over 100 µM. It also gave a TGI (XF 498 CNS) of over 100 µM, a TGI (SK-MEL-5 melanoma) of over 100 µM and a TGI (DLD-1 colon) of over 100 µM. It also gave a TGI (OVCAR-8 ovarian) of over 100 µM, a TGI (SNB-78 CNS) of over 100 µM and a TGI (M14 melanoma) of over 100 µM. The TGI (MALME-3M melanoma) was over 100 µM, the TGI (KM12 colon) was over 100 µM and the TGI (UO-31 renal) was 85.6 µM. The TGI (K-562 leukemia) was over 100 µM, the TGI (A549 NSCLC) was over 100 µM and the TGI (NCI-H226 lung) was over 100 µM. It also gave a TGI (SN12C renal) of over 100 µM, a TGI (NCI-H522 lung) of 74.8 µM and a TGI (COLO 205 colon) of over 100 µM. It also gave a TGI (KM20L2 colon) of over 100 µM, a TGI (NCI-H23 lung) of over 100 µM and a TGI (HOP-18 NSCLC) of over 100 µM. The TGI (LOX IMVI melanoma) was over 100 µM, the TGI (UACC-62 melanoma) was over 100 µM and the TGI (A498 renal) was over 100 µM. It also gave a TGI (SK-OV-3 ovarian) of over 100 µM and a TGI (MOLT-4 leukemia) of over 100 µM.
`O=C(NO)c1ccc(O)c(O)c1` showed a TGI (OVCAR-4 ovarian) of over 100 µM, a TGI (HL-60(TB) leukemia) of 56 µM and a TGI (SF-539 CNS) of over 100 µM. It also gave a TGI (HCT-15 colon) of over 100 µM, a TGI (RXF 393 renal) of over 100 µM and a TGI (NCI-H460 lung) of over 100 µM. It also gave a TGI (RXF-631 renal) of over 100 µM, a TGI (OVCAR-5 ovarian) of over 100 µM and a TGI (HCC-2998 colon) of over 100 µM. The TGI (HCT-116 colon) was over 100 µM, the TGI (HT29 colon) was over 100 µM and the TGI (EKVX NSCLC) was over 100 µM. The TGI (DMS 273 small cell lung) was 77.8 µM, the TGI (786-0 renal) was over 100 µM and the TGI (UACC-257 melanoma) was over 100 µM. It also gave a TGI (SK-MEL-28 melanoma) of over 100 µM, a TGI (SNB-75 CNS) of over 100 µM and a TGI (TK-10 renal) of over 100 µM. The TGI (SF-295 CNS) was over 100 µM, the TGI (OVCAR-3 ovarian) was over 100 µM and the TGI (IGROV1 ovarian) was over 100 µM. For the same compound, the TGI (HOP-62 NSCLC) was over 100 µM, the TGI (RPMI-8226 leukemia) was over 100 µM and the TGI (LXFL 529 NSCLC) was over 100 µM. The TGI (DMS 114 small cell lung) was over 100 µM, the TGI (SF-268 CNS) was over 100 µM and the TGI (SNB-19 CNS) was over 100 µM. It also gave a TGI (SW-620 colon) of over 100 µM, a TGI (CCRF-CEM leukemia) of over 100 µM and a TGI (U251 CNS) of over 100 µM. The TGI (M19-MEL melanoma) was over 100 µM, the TGI (CAKI-1 renal) was over 100 µM and the TGI (XF 498 CNS) was over 100 µM. The TGI (SK-MEL-5 melanoma) was over 100 µM, the TGI (DLD-1 colon) was over 100 µM and the TGI (OVCAR-8 ovarian) was over 100 µM. For the same compound, the TGI (SNB-78 CNS) was over 100 µM, the TGI (M14 melanoma) was over 100 µM and the TGI (MALME-3M melanoma) was over 100 µM. It also gave a TGI (KM12 colon) of over 100 µM, a TGI (UO-31 renal) of over 100 µM and a TGI (K-562 leukemia) of 93.8 µM. For the same compound, the TGI (A549 NSCLC) was over 100 µM, the TGI (NCI-H226 lung) was over 100 µM and the TGI (ACHN renal) was over 100 µM. For the same compound, the TGI (SN12C renal) was over 100 µM, the TGI (NCI-H522 lung) was over 100 µM and the TGI (COLO 205 colon) was over 100 µM. It also gave a TGI (SR leukemia) of over 100 µM, a TGI (KM20L2 colon) of over 100 µM and a TGI (NCI-H23 lung) of over 100 µM. For the same compound, the TGI (HOP-18 NSCLC) was over 100 µM, the TGI (UACC-62 melanoma) was over 100 µM and the TGI (A498 renal) was over 100 µM. It also gave a TGI (SK-OV-3 ovarian) of over 100 µM, a TGI (MOLT-4 leukemia) of over 100 µM and a TGI (HOP-92 NSCLC) of over 100 µM.
Work on `CCC1CN2CCC3(c4ccccc4)CC(C(=O)OC)=CC1C23` (stereo not given) yielded a TGI (OVCAR-4 ovarian) of 27.8 µM, a TGI (SF-539 CNS) of 31.3 µM and a TGI (HCT-15 colon) of 31.9 µM. The TGI (RXF 393 renal) was 33.6 µM, the TGI (NCI-H460 lung) was 32.5 µM and the TGI (RXF-631 renal) was 28.5 µM. For the same compound, the TGI (OVCAR-5 ovarian) was 20.6 µM, the TGI (HCC-2998 colon) was 30.7 µM and the TGI (HCT-116 colon) was 29.4 µM. The TGI (HT29 colon) was 31.7 µM, the TGI (EKVX NSCLC) was 34.1 µM and the TGI (786-0 renal) was 31.9 µM. The TGI (UACC-257 melanoma) was 32 µM, the TGI (SK-MEL-28 melanoma) was 31.5 µM and the TGI (SNB-75 CNS) was 51 µM. It also gave a TGI (TK-10 renal) of 58.6 µM, a TGI (SF-295 CNS) of 33.1 µM and a TGI (OVCAR-3 ovarian) of 33.8 µM. It also gave a TGI (IGROV1 ovarian) of 47.3 µM, a TGI (HOP-62 NSCLC) of 38.4 µM and a TGI (RPMI-8226 leukemia) of over 100 µM. The TGI (LXFL 529 NSCLC) was 28.7 µM, the TGI (SF-268 CNS) was 27.7 µM and the TGI (SNB-19 CNS) was 35 µM. It also gave a TGI (SW-620 colon) of 31.8 µM, a TGI (CCRF-CEM leukemia) of over 100 µM and a TGI (U251 CNS) of 30 µM. It also gave a TGI (M19-MEL melanoma) of 31.1 µM, a TGI (CAKI-1 renal) of 33.1 µM and a TGI (XF 498 CNS) of 18.2 µM. The TGI (SK-MEL-5 melanoma) was 30.2 µM, the TGI (DLD-1 colon) was 39 µM and the TGI (OVCAR-8 ovarian) was 33.7 µM. For the same compound, the TGI (SNB-78 CNS) was 44 µM, the TGI (M14 melanoma) was 28.2 µM and the TGI (MALME-3M melanoma) was 29.7 µM. The TGI (KM12 colon) was 28.2 µM, the TGI (UO-31 renal) was 27.1 µM and the TGI (K-562 leukemia) was 24.9 µM. The TGI (A549 NSCLC) was 35.8 µM, the TGI (NCI-H226 lung) was 36.2 µM and the TGI (ACHN renal) was 30.4 µM. It also gave a TGI (SN12C renal) of 30.4 µM, a TGI (NCI-H522 lung) of 27.2 µM and a TGI (COLO 205 colon) of 31.1 µM. It also gave a TGI (SR leukemia) of over 100 µM, a TGI (KM20L2 colon) of 30.3 µM and a TGI (NCI-H23 lung) of 28.9 µM. For the same compound, the TGI (HOP-18 NSCLC) was 35.1 µM, the TGI (LOX IMVI melanoma) was 28.3 µM and the TGI (UACC-62 melanoma) was 30.2 µM. The TGI (A498 renal) was 33.9 µM, the TGI (SK-OV-3 ovarian) was 26.5 µM and the TGI (MOLT-4 leukemia) was over 100 µM. For the same compound, the TGI (HOP-92 NSCLC) was 25.9 µM.
